Data taken from patent US12221422B2, “Compounds and their use for the treatment of alpha1-antitrypsin deficiency” (CENTESSA PHARMACEUTICALS (UK) LIMITED, priority 2018, dated 2025).

Columns and labels:
human M A1AT = biological target: T1, human M A1AT (Homo sapiens, UniProt P01009); test: A1AT cell secretion assay using HEK-M cells (ELISA); type: cell-based; settings: 10 μM, 48 h
T1 construct: expressed in transfected cells; host or cells: HEK-M (HEK-EBNA cells containing the M A1AT plasmid)
Procedure: (§1) HEK-M cells, a human embryonic kidney cell line stably transfected with the human M A1AT gene, were plated into 96 well plates (3.0×10^5 cells/ml with 200 μl of media/well) overnight at 37° C. in a humidified atmosphere containing 5% CO2. Following incubation cells were washed with 200 μl serum-free media three times and media was replaced with serum-free media containing either vehicle, 10 μM suberanilohydroxamic acid (SAHA) or a compound of the invention (at 10 μM) in replicates of six for 48 h in a 37° C. incubator in a final volume of 200 μl. […]
(§2) Briefly, a 96 well plate was coated with human A1AT capture antibody overnight at room temperature (1:180 dilution from stock, 100 μl final volume/well). […] After which, 50 μl stop solution (2M H2SO4) was added and optical density (OD) of each well was read at 450 nm with 570 nm blank subtracted from each well using a microplate reader. A 4 parameter logistic curve was constructed using GraphPad Prism 7 and A1AT concentrations were determined in each sample by interpolation from a standard curve and multiplying by the appropriate dilution factor.
(§3) The amount of A1AT secreted from transfected HEK-EBNA cells into the media was measured by ELISA. […]

human Siiyama A1AT = biological target: T2, human Siiyama A1AT (Homo sapiens, UniProt P01009, S77F); test: A1AT cell secretion assay using HEK-Siiyama cells (ELISA); type: cell-based; settings: 10 μM, 48 h, positive control
T2 construct: expressed in transfected cells; host or cells: HEK-Siiyama (HEK-EBNA cells containing the Siiyama A1AT plasmid)
T2 sequence (P01009 25-418 S77F): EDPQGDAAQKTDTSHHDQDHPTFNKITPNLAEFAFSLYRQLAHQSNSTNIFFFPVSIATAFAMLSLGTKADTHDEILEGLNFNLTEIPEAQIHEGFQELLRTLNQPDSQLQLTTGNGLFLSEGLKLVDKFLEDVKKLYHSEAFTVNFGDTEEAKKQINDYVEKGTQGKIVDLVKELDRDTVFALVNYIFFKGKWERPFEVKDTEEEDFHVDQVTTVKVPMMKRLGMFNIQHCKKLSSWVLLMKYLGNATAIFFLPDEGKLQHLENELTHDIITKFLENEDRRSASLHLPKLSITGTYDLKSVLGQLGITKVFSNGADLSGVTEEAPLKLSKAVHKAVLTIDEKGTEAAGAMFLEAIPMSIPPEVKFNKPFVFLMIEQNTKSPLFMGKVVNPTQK
Procedure: as §1, with “HEK-Siiyama cells,” for “HEK-M cells,”, “human Siiyama” for “human M”, “(at 1 or” for “(at”, “of eight” for “of six”
as §2
The amount of human A1AT secreted from transfected HEK-EBNA cells into the media was measured by ELISA. […]

Pharmacokinetics in rats = type: in vivo; settings: rat, whole blood, Sprague Dawley rats, iv 2 mg/kg or oral 10 mg/kg; for half-life: read-out: Half-life in blood (t1/2); for clearance: read-out: Observed clearance; for Vd: read-out: Volume of distribution (Vz)
Procedure: Compounds were administered to Sprague Dawley rats intravenously (2 mg/kg) or orally (10 mg/kg) by gavage. Whole blood diluted with water was prepared from these dosed animals over a time course up to 24 hours post dose to allow blood concentrations of drug to be measured by UPLC-MS/MS.

human Z A1AT = human Z A1AT (Homo sapiens, UniProt P01009, E366K); test: A1AT cell secretion assay using HEK-Z cells (ELISA); type: cell-based; set-up: expressed in transfected cells; host or cells: HEK-Z (HEK-EBNA cells containing the Z A1AT plasmid); settings: HEK-Z cells, 10, 33, 100 and 333 nM, 48 h, cell supernatant
Sequence of human Z A1AT (P01009 25-418 E366K): as the sequence (P01009 25-418 S77F) above, with F53S, E342K counted along it
Procedure: HEK-Z cells, a human embryonic kidney cell line stably transfected with the human Z A1AT gene, were plated into 96 well plates (3.0×10^5 cells/ml with 200 μl of media/well) overnight at 37° C. in a humidified atmosphere containing 5% CO2. Following incubation cells were washed with 200 μl serum-free media three times and media was replaced with treatments in quadruplicate using serum-free media containing either vehicle, 10 μM suberanilohydroxamic acid (SAHA), N,N-dimethyl-4-((6-oxopyrimidin-1(6H)-yl)methyl)benzamide (at concentrations of 10, 33, 100 and 333 nM), N,N-(bis-methyl-d3)-4-((6-oxopyrimidin-1(6H)-yl)methyl)benzamide (at concentrations of 10, 33, 100 and 333 nM) or N-methyl-4-((6-oxopyrimidin-1(6H)-yl)methyl)benzamide (at concentrations of 10, 33, 100 and 333 nM) for 48 h in a 37° C. incubator in a final volume of 200 μl. At the end of the incubation step the supernatants were removed from the wells, centrifuged at 1000×g at 4° C. for 10 min and were assayed for human A1AT levels by ELISA (Human Serpin A1/α1-antitrypsin duo set ELISA, R& D Systems, DY1268) per manufacturer's instructions.
as §2, with “volume/well). The capture antibody was then removed and wells washed three times with 300 μl wash buffer (0.05% Tween 20 in PBS) and then 200 μl reagent diluent ([…]) was incubated in each well for 1 h at room temperature.” for “volume/well).”
as §3

T1 sequence (P01009 25-418): as the sequence (P01009 25-418 S77F) above, with F53S counted along it

| SMILES | secretion of M A1AT as measured by ELISA (human M A1AT) | secretion of Siiyama A1AT as measured by ELISA (human Siiyama A1AT) | half-life (Pharmacokinetics in rats) | clearance (Pharmacokinetics in rats) | Vd (Pharmacokinetics in rats) | secretion of Z A1AT as measured by ELISA (human Z A1AT) |
| --- | --- | --- | --- | --- | --- | --- |
| O=C(CCCCCCC(=O)Nc1ccccc1)NO [SAHA, suberanilohydroxamic acid, reference compound] | stimulates an increase in M A1AT secretion | stimulates an increase in Siiyama A1AT secretion |  |  |  |  |
| CNC(=O)c1ccc(Cn2cnccc2=O)cc1 [N-methyl-4-((6-oxopyrimidin-1(6H)-yl)methyl)benzamide] |  |  | 63 min | 10.6 mL/min/kg | 1 L/kg | stimulates secretion of Z A1AT in a dose dependent manner |
| [2H]C([2H])([2H])N(C(=O)c1ccc(Cn2cnccc2=O)cc1)C([2H])([2H])[2H] [N,N-(bis-methyl-d3)-4-((6-oxopyrimidin-1(6H)-yl)methyl)benzamide] |  |  | 52 min | 10.6 mL/min/kg | 0.72 L/kg | stimulates secretion of Z A1AT in a dose dependent manner |
